The text below walks through data of patent EP2424865B1 (Boehringer Ingelheim International GmbH, priority 2009, dated 2010).

For experiment [1], the target named is T1, 11β-HSD1 (Homo sapiens, UniProt P28845). Description: biochemical. The conditions noted are these: read-out: Average % control inhibition at 100 nM.
Experiment [2] addresses human recombinant cytochrome P450 2C19 (Homo sapiens, UniProt P33261). Description: Biological Test Example 8: CYP2C19 inhibition ([N-methyl-14C]-Diazepam N-demethylation).
Experiment [3] addresses human recombinant cytochrome P450 2C9 (Homo sapiens, UniProt P11712). Description: Biological Test Example 7: CYP2C9 inhibition ([O-methyl-14C]-Naproxen O-demethylation).
Experiment [4] addresses human recombinant cytochrome P450 3A4 (Homo sapiens, UniProt P08684).
Experiment [5] addresses T1, 11β-HSD1.
Setting [6] is: read-out: Biological Test Example 1 IC50, Examples.

Like-named read-outs stand apart in the source and are kept apart here.

T1 sequence (P28845 whole entry): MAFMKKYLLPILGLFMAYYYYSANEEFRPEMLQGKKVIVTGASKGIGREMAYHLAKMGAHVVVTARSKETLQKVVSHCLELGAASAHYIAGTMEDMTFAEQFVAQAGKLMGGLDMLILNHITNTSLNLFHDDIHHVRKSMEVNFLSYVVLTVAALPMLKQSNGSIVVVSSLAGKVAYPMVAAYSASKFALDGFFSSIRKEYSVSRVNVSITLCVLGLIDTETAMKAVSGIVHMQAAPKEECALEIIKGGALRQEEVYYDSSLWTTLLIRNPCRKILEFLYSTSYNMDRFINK
Chain of human recombinant cytochrome P450 2C19 (P33261 whole entry): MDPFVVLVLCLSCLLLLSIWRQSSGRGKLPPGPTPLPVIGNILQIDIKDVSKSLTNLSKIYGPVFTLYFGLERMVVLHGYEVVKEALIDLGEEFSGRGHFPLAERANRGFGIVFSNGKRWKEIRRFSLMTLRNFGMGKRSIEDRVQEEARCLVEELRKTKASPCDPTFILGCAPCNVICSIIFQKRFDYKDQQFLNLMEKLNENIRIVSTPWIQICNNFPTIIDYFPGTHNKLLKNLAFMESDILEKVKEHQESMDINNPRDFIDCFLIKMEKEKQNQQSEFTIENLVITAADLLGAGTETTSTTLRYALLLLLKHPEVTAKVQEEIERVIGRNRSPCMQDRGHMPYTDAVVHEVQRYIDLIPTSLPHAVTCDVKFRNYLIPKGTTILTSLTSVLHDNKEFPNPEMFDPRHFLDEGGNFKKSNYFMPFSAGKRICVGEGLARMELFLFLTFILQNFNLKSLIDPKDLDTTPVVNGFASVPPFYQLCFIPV
Chain of human recombinant cytochrome P450 2C9 (P11712 whole entry): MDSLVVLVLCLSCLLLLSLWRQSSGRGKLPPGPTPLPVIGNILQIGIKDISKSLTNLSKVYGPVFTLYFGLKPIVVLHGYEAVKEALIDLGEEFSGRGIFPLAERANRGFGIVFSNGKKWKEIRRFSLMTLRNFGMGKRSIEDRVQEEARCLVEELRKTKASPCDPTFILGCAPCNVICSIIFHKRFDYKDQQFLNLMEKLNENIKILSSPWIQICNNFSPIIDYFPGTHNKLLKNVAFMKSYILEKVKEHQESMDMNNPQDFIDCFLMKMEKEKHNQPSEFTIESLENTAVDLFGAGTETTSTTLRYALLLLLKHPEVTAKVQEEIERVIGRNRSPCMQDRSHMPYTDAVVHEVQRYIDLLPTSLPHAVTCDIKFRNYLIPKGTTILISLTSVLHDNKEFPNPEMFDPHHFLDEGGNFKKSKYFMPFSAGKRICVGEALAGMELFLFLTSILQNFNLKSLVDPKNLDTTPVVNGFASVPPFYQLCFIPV
Chain of human recombinant cytochrome P450 3A4 (P08684 whole entry): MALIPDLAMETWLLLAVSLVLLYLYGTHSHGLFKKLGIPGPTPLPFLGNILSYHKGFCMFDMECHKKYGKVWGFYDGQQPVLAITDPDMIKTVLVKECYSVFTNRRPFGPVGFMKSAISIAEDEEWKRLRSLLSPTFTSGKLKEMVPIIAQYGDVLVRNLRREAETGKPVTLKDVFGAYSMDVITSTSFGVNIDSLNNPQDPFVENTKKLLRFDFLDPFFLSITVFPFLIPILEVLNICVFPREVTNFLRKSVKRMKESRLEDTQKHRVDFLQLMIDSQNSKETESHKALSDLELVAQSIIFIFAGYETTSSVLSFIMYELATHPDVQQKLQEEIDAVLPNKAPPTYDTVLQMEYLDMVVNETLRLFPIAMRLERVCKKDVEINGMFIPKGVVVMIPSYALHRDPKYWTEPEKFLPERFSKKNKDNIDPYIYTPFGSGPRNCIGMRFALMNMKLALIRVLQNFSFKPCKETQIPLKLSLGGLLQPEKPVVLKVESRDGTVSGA

As to `C[C@@H](c1ccc(-c2ccn(CC(C)(C)CO)c(=O)c2)cc1)N1CC[C@](CC(C)(C)O)(c2ccccc2)OC1=O` [Example 90, 3-((S)-1-{4-[1-(3-Hydroxy-2,2-dimethyl-propyl)-2-oxo-1,2-dihydro-pyridin-4-yl]-phenyl}-ethyl)-(S)-6-(2-hydroxy-2-methyl-propyl)-6-phenyl-[1,3]oxazinan-2-one], on 11β-HSD1 [1], the inhibition at 0.1 µM is 4%.
For the molecule `C[C@@H](c1ccc(-c2ccc(=O)n(CC3CC3)c2)cc1)N1CC[C@](CC(C)(C)O)(c2ccccc2)OC1=O` [Example 76, 3-{(S)1-[4-(1-Cyclopropylmethyl-6-oxo-1,6-dihydro-pyridin-3-yl)-phenyl]-ethyt}-(S)-6-(2-hydroxy-2-methyl-propyl)-6-phenyl-[1,3]oxazinan-2-one], the IC50 in experiment [2] stood at 9 µM; in experiment [3], 4 µM; in experiment [4], 10 µM. Moreover, the inhibition at 0.1 µM on 11β-HSD1 [1] came out at 17%.
Regarding `Cc1cc(-c2ccn(C3CC3)c(=O)c2)cc(C)c1CN1CCC(CC(C)(C)O)(c2ccccc2)OC1=O` (centres unmarked) [Example 98], the inhibition at 0.1 µM on 11β-HSD1 [1] amounted to 67%.
For `C[C@@H](c1ccc(-c2ccn(CC(C)(C)O)c(=O)c2)cc1)N1CC[C@](CC(C)(C)O)(c2ccccc2)OC1=O` [Example 80, (S)-6-(2-Hydroxy-2-methyl-propyl)-3-((S)-1-{4-[1-(2-hydroxy-2-methylpropyl)-2-oxo-1,2-dihydro-pyridin-4-yl]-phenyl}-ethyl)-6-phenyl-[1,3]oxazinan-2-one], the half-inhibitory concentration (IC50) in experiment [2] turned out to be 38 µM. Besides, the inhibition at 0.1 µM at 11β-HSD1 [1] amounted to 37%.
Regarding `C[C@@H](c1ccc(-c2ccn(C3CC3)c(=O)c2)cc1)N1CCC(CC(C)(C)C)(CC(C)(C)O)OC1=O` (single isomer, unassigned; isomer 1) [94 Isomer 1], the IC50 on 11β-HSD1 [5] (setting [6]) was over 0.1 µM.
Regarding `C[C@@H](c1ccc(-c2ccn(C3CC3)c(=O)c2)cc1)N1CCC(CC(C)(C)C)(CC(C)(C)O)OC1=O` (single isomer, unassigned) [Example 94 Isomer 2], the “Biological Test Example 1 Average % inhibition at 100 nM” value at 11β-HSD1 [5] (at 100 nM, listed as EXAMPLE 94 Isomer 2, 0.1 µM) was 8.2%. Further, the IC50 at 11β-HSD1 [5] (read-out: Biological Test Example 1 IC50 Range, microsomal preparation of human 11β-HSD1, SPA) was over 0.1 µM.
`C[C@@H](c1ccc(-c2ccn(C3CC3)c(=O)c2)cc1)N1CCC(CC(C)(C)O)(C2CCOCC2)OC1=O` (single isomer, unassigned; isomer 1) [91 Isomer 1]: the IC50 at 11β-HSD1 [5] (setting [6]) is over 0.1 µM.
Still for that read-out and setting: the figure for `C[C@@H](c1ccc(-c2ccn(C3CC3)c(=O)c2)cc1)N1CCC(CC(C)(C)O)(C2CCOCC2)OC1=O` (single isomer, unassigned; isomer 2) [91 Isomer 2] is over 0.1 µM.
For `C[C@@H](c1ccc(-c2cc(=O)n(C)cc2F)cc1)N1CC[C@](CC(C)(C)O)(c2ccccc2)OC1=O` [Example 79, 3-{(S)-1-[4-(5-Fluoro-1-methyl-2-oxo-1,2-dihydro-pyridin-4-yl)-phenyl]-ethyl}-(S)-6-(2-hydroxy-2-methyl-propyl)-6-phenyl-[1,3]oxazinan-2-one], the inhibition at 0.1 µM on 11β-HSD1 [1] was 15%.
